Experimental data reported in patent US20240239755A1, “SUBSTITUTED PYRIDAZINONES, SALTS OR N-OXIDES THEREOF AND THEIR USE AS HERBICIDALLY ACTIVE SUBSTANCES” (Bayer Aktiengesellschaft, priority 2021, published 2024).

Key:
Format in all cases: in vivo
[1] = system: Poa annua (POAAN); assay: Herbicidal pre-emergence action, 1280 g/ha (Table A7); conditions: visual grading after ca. 3 weeks vs untreated controls
In short: (§1)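 Percent herbicidal effect was scored visually about 3 weeks after treatment relative to untreated pots, where 100% means dead plants and 0% equals control. Compounds (WP or EC) were sprayed onto covering soil of sown sandy loam pots in water containing 0.5% additive at 600 L/ha.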

[2] = system: Poa annua (POAAN); assay: Herbicidal pre-emergence action, 320 g/ha, POAAN; conditions: visual grading after ca. 3 weeks
Description: (§2) Seeds of mono- and dicotyledonous weed plants were sown in plastic pots (double sowings with one species of mono- and one species of dicotyledonous weed plants per pot), in sandy loam, and covered with soil. The compounds according to the invention, formulated in the form of wettable powders (WP) or as emulsifiable concentrates (EC), were applied to the surface of the covering soil as an aqueous suspension or as an emulsion, with the addition of 0.5% of an additive, at an application rate of 600 litres of water per hectare (converted). Following treatment, the pots were placed in a greenhouse and kept under optimum growth conditions for the test plants. The visual grading of the damage to the test plants was carried out after ca. 3 weeks in comparison to untreated controls (herbicidal effect in percent (%): 100% effect=plants have died, 0% effect=as control plants).
Tables C1 to C6 below, show the effects of selected compounds of the general formula (I) according to Table 1 on various harmful plants using an application rate corresponding to 320 g/ha obtained by the experimental procedure mentioned above.

[3] = system: Alopecurus myosuroides (ALOMY); assay: Herbicidal pre-emergence action, 1280 g/ha (Table A2); conditions: visual grading after ca. 3 weeks vs untreated controls
Description: as §2, with “plants). Tables A1 to A11 below, show the effects of selected compounds of the general formula (I) according to Table 1 on various harmful plants and an application rate corresponding to 1280 g/ha obtained by the experimental procedure mentioned above.” for “plants).”

[4] = system: Veronica persica (VERPE); assay: Herbicidal post-emergence action, 320 g/ha, VERPE; conditions: visual grading after ca. 3 weeks
In short: (§3)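 Visual herbicidal effect (%) relative to untreated plants, scored about 3 weeks after treatment; 100% means dead plants. Plants in sandy loam were sprayed at the single-leaf stage with formulated compound plus 0.5% additive in 600 litres water per hectare.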

[5] = system: Kochia scoparia (KCHSC); assay: Herbicidal post-emergence action, 320 g/ha, KCHSC; conditions: visual grading after ca. 3 weeks
In short: as §3

[6] = system: Matricaria inodora (MATIN); assay: Herbicidal pre-emergence action, 1280 g/ha (Table A6); conditions: visual grading after ca. 3 weeks vs untreated controls
In short: as §1

[7] = system: Lolium rigidum (LOLRI); assay: Herbicidal pre-emergence action, 1280 g/ha (Table A5); conditions: visual grading after ca. 3 weeks vs untreated controls
In short: as §1

[8] = system: Lolium rigidum (LOLRI); assay: Herbicidal post-emergence action, 1280 g/ha (Table B5); conditions: visual assessment after ca. 3 weeks vs untreated controls
In short: (§4)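 Foliar application to single-leaf weeds in sandy loam; percent kill judged visually ca. 3 weeks later relative to untreated plants.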

[9] = system: Veronica persica (VERPE); assay: Herbicidal post-emergence action, 1280 g/ha, VERPE; conditions: visual grading vs untreated controls
In short: (§5)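 Visual rating ~3 weeks after treatment: 0% equals untreated control, 100% means plants died. Treatment was a 1280 g/ha foliar spray (600 L water/ha, 0.5% additive, WP or EC formulation) applied to single-leaf-stage plants grown 2–3 weeks in sandy loam under controlled conditions.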

[10] = system: Amaranthus retroflexus (AMARE); assay: Herbicidal post-emergence action, 1280 g/ha, AMARE; conditions: visual grading vs untreated controls
In short: as §5

[11] = system: Matricaria inodora (MATIN); assay: Herbicidal post-emergence action, 1280 g/ha (Table B6); conditions: visual assessment after ca. 3 weeks vs untreated controls
In short: as §4

[12] = system: Abutilon theophrasti (ABUTH); assay: Herbicidal post-emergence action, 320 g/ha, ABUTH; conditions: visual grading after ca. 3 weeks
In short: as §3

[13] = system: Stellaria media (STEME); assay: Herbicidal pre-emergence action, 1280 g/ha (Table A9); conditions: visual grading after ca. 3 weeks vs untreated controls
In short: as §1

[14] = system: Amaranthus retroflexus (AMARE); assay: Herbicidal pre-emergence action, 1280 g/ha (Table A11); conditions: visual grading after ca. 3 weeks vs untreated controls
In short: as §1

[15] = system: Abutilon theophrasti (ABUTH); assay: Herbicidal post-emergence action, 1280 g/ha (Table B1); conditions: visual assessment after ca. 3 weeks vs untreated controls
In short: as §4

[16] = system: Poa annua (POAAN); assay: Herbicidal post-emergence action, 1280 g/ha (Table B7); conditions: visual assessment after ca. 3 weeks vs untreated controls
Description: (§6) Seeds of mono- and dicotyledonous weed plants were sown in plastic pots (double sowings with one species of mono- and one species of dicotyledonous weed plants per pot), in sandy loam, covered with soil and grown under controlled growth conditions. 2 to 3 weeks after sowing, the test plants were sprayed in the single-leaf stage. The compounds according to the invention, formulated in the form of wettable powders (WP) or as emulsifiable concentrates (EC), were sprayed onto the green plant parts as an aqueous suspension or as an emulsion, with the addition of 0.5% of an additive, at an application rate of 600 litres of water per hectare (converted). The test plants were placed in the greenhouse for ca. 3 weeks under optimum growth conditions, and then the effect of the preparations was assessed visually in comparison with untreated controls (herbicidal effect in percent (%): 100% effect=plants have died, 0% effect=as control plants). Tables B1 to B11 below, show the effects of selected compounds of the general formula (I) according to Table 1 on various harmful plants using an application rate corresponding to 1280 g/ha obtained by the experimental procedure mentioned above.

[17] = system: Kochia scoparia (KCHSC); assay: Herbicidal post-emergence action, 1280 g/ha (Table B4); conditions: visual assessment after ca. 3 weeks vs untreated controls
In short: as §4

[18] = system: Amaranthus retroflexus (AMARE); assay: Herbicidal post-emergence action, 320 g/ha, AMARE; conditions: visual grading after ca. 3 weeks
In short: as §3

[19] = system: Matricaria inodora (MATIN); assay: Herbicidal post-emergence action, 320 g/ha, MATIN; conditions: visual grading after ca. 3 weeks
In short: as §3

[20] = system: Echinochloa crus-galli (ECHCG); assay: Herbicidal post-emergence action, 1280 g/ha (Table B3); conditions: visual assessment after ca. 3 weeks vs untreated controls
In short: as §4

[21] = system: Stellaria media (STEME); assay: Herbicidal post-emergence action, 1280 g/ha (Table B9); conditions: visual assessment after ca. 3 weeks vs untreated controls
In short: as §4

[22] = system: Stellaria media (STEME); assay: Herbicidal post-emergence action, 320 g/ha, STEME; conditions: visual grading after ca. 3 weeks
In short: as §3

[23] = system: Lolium rigidum (LOLRI); assay: Herbicidal pre-emergence action, 320 g/ha (Table C2); conditions: visual grading after ca. 3 weeks vs untreated controls
In short: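 Herbicidal effect was graded by eye roughly 3 weeks after treatment, from 0% (as control) to 100% (dead plants). Weed seeds sown in sandy loam were covered and sprayed on the soil surface with WP/EC suspensions or emulsions, 0.5% additive, 600 L water/ha, then kept in a greenhouse.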

[24] = system: Lolium rigidum (LOLRI); assay: Herbicidal post-emergence action, 320 g/ha, LOLRI; conditions: visual grading after ca. 3 weeks
In short: as §3

[25] = system: Echinochloa crus-galli (ECHCG); assay: Herbicidal post-emergence action, 320 g/ha, ECHCG; conditions: visual grading after ca. 3 weeks
Description: as §6, with “plants).” for “plants). Tables B1 to B11 below, show the effects of selected compounds of the general formula (I) according to Table 1 on various harmful plants using an application rate corresponding to 1280 g/ha obtained by the experimental procedure mentioned above.”
Tables D1 to D8 below, show the effects of selected compounds of the general formula (I) according to Table 1 on various harmful plants using an application rate corresponding to 320 g/ha obtained by the experimental procedure mentioned above.

[26] = system: Setaria viridis (SETVI); assay: Herbicidal post-emergence action, 1280 g/ha (Table B8); conditions: visual assessment after ca. 3 weeks vs untreated controls
In short: as §4

[27] = system: Kochia scoparia (KCHSC); assay: Herbicidal pre-emergence action, 1280 g/ha (Table A4); conditions: visual grading after ca. 3 weeks vs untreated controls
In short: as §1

[28] = system: Digitaria sanguinalis (DIGSA); assay: Herbicidal pre-emergence action, 1280 g/ha (Table A3); conditions: visual grading after ca. 3 weeks vs untreated controls
Description: as §2, with “plants). Tables A1 to A11 below, show the effects of selected compounds of the general formula (I) according to Table 1 on various harmful plants and an application rate corresponding to 1280 g/ha obtained by the experimental procedure mentioned above.” for “plants).”

SMILES | herbicidal effect POAAN [1] [%] | herbicidal effect KCHSC [5] [%] | herbicidal effect MATIN [6] [%] | herbicidal effect LOLRI [7] [%] | herbicidal effect LOLRI [8] [%] | herbicidal effect VERPE [9] [%] | herbicidal effect AMARE [10] [%] | herbicidal effect MATIN [11] [%] | herbicidal effect ABUTH [12] [%] | herbicidal effect STEME [13] [%] | herbicidal effect AMARE [14] [%] | herbicidal effect ABUTH [15] [%] | herbicidal effect KCHSC [17] [%] | herbicidal effect AMARE [18] [%] | herbicidal effect MATIN [19] [%] | herbicidal effect ECHCG [20] [%] | herbicidal effect STEME [21] [%] | herbicidal effect STEME [22] [%] | herbicidal effect ECHCG [25] [%] | other results
Cc1nn(C)c(=O)c(Oc2ccccc2OC(F)(F)F)c1O [Example I-008] | 100 | – | – | – | – | – | – | – | – | – | – | – | – | – | – | – | – | – | – | herbicidal effect POAAN [2]: 100%; herbicidal effect ALOMY [3]: 100%
CCOC(=O)Oc1c(C)nn(C)c(=O)c1Oc1ccccc1Cl [Example I-010] | 90 | 100 | 100 | 100 | 100 | 90 | 100 | 100 | 90 | 90 | 90 | 100 | 100 | 100 | 100 | 90 | 100 | 100 | – | herbicidal effect VERPE [4]: 90%; herbicidal effect POAAN [16]: 100%
Cc1nn(C)c(=O)c(Oc2cc(Cl)ccc2Cl)c1O [Example I-016] | – | 90 | 100 | 100 | 90 | 90 | 100 | 90 | 100 | 100 | 90 | 100 | 100 | 100 | 90 | 90 | 100 | 100 | 90 | herbicidal effect LOLRI [23]: 90%; herbicidal effect LOLRI [24]: 90%
Cc1nn(C)c(=O)c(Oc2ccc(Cl)cc2Cl)c1OC(=O)C1CCC1 [Example I-064] | – | 100 | – | – | – | 90 | 100 | 100 | – | – | – | – | 100 | 100 | 90 | 100 | 100 | 90 | 100 | herbicidal effect SETVI [26]: 90%
Cc1nn(C)c(=O)c(Oc2cc(Cl)c(Cl)c(Cl)c2)c1O [Example I-077] | 100 | – | 100 | – | – | – | – | – | – | – | 100 | – | – | – | – | 90 | 100 | 90 | – | herbicidal effect KCHSC [27]: 90%; herbicidal effect DIGSA [28]: 100%
